Results: ChEMBL document CHEMBL3885881, “DrugMatrix”

Species: Rattus norvegicus
Experiment: DrugMatrix - Regimen: Daily Repeat
Format: toxicity, organism-based, Sprague-Dawley
Set-up: regimen Daily Repeat, gender Male, age 6-8 weeks
Conditions: in vivo, po, route oral GAVAGE, vehicle .5 % CMC; for ABSOLUTE BASOPHIL / ABSOLUTE EOSINOPHIL / ABSOLUTE LYMPHOCYTE / ABSOLUTE MONOCYTE / ABSOLUTE SEGMENTED NEUTROPHIL / BASOPHIL / EOSINOPHIL / ERYTHROCYTE COUNT / HEMATOCRIT / HEMOGLOBIN / LEUKOCYTE COUNT / LYMPHOCYTE / MEAN CORPUSCULAR HEMOGLOBIN / MEAN CORPUSCULAR HEMOGLOBIN CONCENTRATION / MEAN CORPUSCULAR VOLUME / MONOCYTE / NEUTROPHIL / NUCLEATED RED BLOOD CELLS / PLATELET COUNT: tissue Blood; for ALANINE AMINOTRANSFERASE / ALBUMIN / ALKALINE PHOSPHATASE / ASPARTATE AMINOTRANSFERASE / BLOOD UREA NITROGEN / CARBON DIOXIDE / CHLORIDE / CHOLESTEROL / CREATINE PHOSPHOKINASE / CREATININE / GLUCOSE / LACTATE DEHYDROGENASE / LIPASE / PHOSPHORUS / POTASSIUM / SODIUM / TOTAL BILIRUBIN / TOTAL PROTEIN / URIC ACID: tissue Plasma
[1] = 0 mg/kg, 72 h, dose level Control, time 3 day
[2] = 0 mg/kg, 120 h, dose level Control, time 5 day
[3] = 500 mg/kg, 72 h, dose level Low, time 3 day

SMILES: CC(C)(Sc1cc(C(C)(C)C)c(O)c(C(C)(C)C)c1)Sc1cc(C(C)(C)C)c(O)c(C(C)(C)C)c1 [PROBUCOL]
- ABSOLUTE BASOPHIL [1]: 0 CELLS/uL
- ABSOLUTE EOSINOPHIL [1]: 222.83 CELLS/uL
- ABSOLUTE LYMPHOCYTE [1]: 14453 CELLS/uL
- ABSOLUTE MONOCYTE [1]: 0 CELLS/uL
- ABSOLUTE SEGMENTED NEUTROPHIL [1]: 1490.83 CELLS/uL
- BASOPHIL [1]: 0%
- EOSINOPHIL [1]: 1.33%
- ERYTHROCYTE COUNT [1]: 5.76 x10E6/uL
- HEMATOCRIT [1]: 36.52%
- HEMOGLOBIN [1]: 13.45 G/DL
- LEUKOCYTE COUNT [1]: 16.17 x10E3/uL
- LYMPHOCYTE [1]: 89.33%
- MEAN CORPUSCULAR HEMOGLOBIN [1]: 23.37 pg
- MEAN CORPUSCULAR HEMOGLOBIN CONCENTRATION [1]: 36.85 G/DL
- MEAN CORPUSCULAR VOLUME [1]: 63.47 fL
- MONOCYTE [1]: 0%
- NEUTROPHIL [1]: 9.33%
- NUCLEATED RED BLOOD CELLS [1]: 0 /100WBC
- PLATELET COUNT [1]: 1239.5 x10E3/uL
- ALANINE AMINOTRANSFERASE [1]: 43.83 u/L
- ALBUMIN [1]: 4.27 G/DL
- ALKALINE PHOSPHATASE [1]: 398.83 u/L
- ASPARTATE AMINOTRANSFERASE [1]: 81.17 u/L
- BLOOD UREA NITROGEN [1]: 17.67 mg/dL
- CARBON DIOXIDE [1]: 27.5 mmol/L
- CHLORIDE [1]: 99.17 MEQ/L
- CHOLESTEROL [1]: 74 mg/dL
- CREATINE PHOSPHOKINASE [1]: 331.5 u/L
- CREATININE [1]: 0.2 mg/dL
- GLUCOSE [1]: 171.33 mg/dL
- LACTATE DEHYDROGENASE [1]: 241.67 u/L
- LIPASE [1]: 9.5 u/L
- PHOSPHORUS [1]: 12.25 mg/dL
- POTASSIUM [1]: 6.33 MEQ/L
- SODIUM [1]: 141.28 MEQ/L
- TOTAL BILIRUBIN [1]: 0.15 mg/dL
- TOTAL PROTEIN [1]: 5.98 G/DL
- URIC ACID [1]: 1.63 mg/dL
- ABSOLUTE BASOPHIL [2]: 0 CELLS/uL
- ABSOLUTE EOSINOPHIL [2]: 148.67 CELLS/uL
- ABSOLUTE LYMPHOCYTE [2]: 16020.5 CELLS/uL
- ABSOLUTE MONOCYTE [2]: 29.17 CELLS/uL
- ABSOLUTE SEGMENTED NEUTROPHIL [2]: 1468.33 CELLS/uL
- BASOPHIL [2]: 0%
- EOSINOPHIL [2]: 1%
- ERYTHROCYTE COUNT [2]: 5.78 x10E6/uL
- HEMATOCRIT [2]: 35.77%
- HEMOGLOBIN [2]: 13.4 G/DL
- LEUKOCYTE COUNT [2]: 17.67 x10E3/uL
- LYMPHOCYTE [2]: 90.5%
- MEAN CORPUSCULAR HEMOGLOBIN [2]: 23.22 pg
- MEAN CORPUSCULAR HEMOGLOBIN CONCENTRATION [2]: 37.47 G/DL
- MEAN CORPUSCULAR VOLUME [2]: 61.92 fL
- MONOCYTE [2]: 0.17%
- NEUTROPHIL [2]: 8.33%
- NUCLEATED RED BLOOD CELLS [2]: 0.17 /100WBC
- PLATELET COUNT [2]: 1255.5 x10E3/uL
- ALANINE AMINOTRANSFERASE [2]: 46.5 u/L
- ALBUMIN [2]: 4.38 G/DL
- ALKALINE PHOSPHATASE [2]: 336 u/L
- ASPARTATE AMINOTRANSFERASE [2]: 76.5 u/L
- BLOOD UREA NITROGEN [2]: 20 mg/dL
- CARBON DIOXIDE [2]: 27.5 mmol/L
- CHLORIDE [2]: 101 MEQ/L
- CHOLESTEROL [2]: 71.33 mg/dL
- CREATINE PHOSPHOKINASE [2]: 231.83 u/L
- CREATININE [2]: 0.37 mg/dL
- GLUCOSE [2]: 168.83 mg/dL
- LACTATE DEHYDROGENASE [2]: 174 u/L
- LIPASE [2]: 8.67 u/L
- PHOSPHORUS [2]: 11.48 mg/dL
- POTASSIUM [2]: 6.82 MEQ/L
- SODIUM [2]: 143.8 MEQ/L
- TOTAL BILIRUBIN [2]: 0.2 mg/dL
- TOTAL PROTEIN [2]: 5.98 G/DL
- URIC ACID [2]: 1.83 mg/dL
- ABSOLUTE BASOPHIL [3]: 0 CELLS/uL
- ABSOLUTE EOSINOPHIL [3]: 297 CELLS/uL
- ABSOLUTE LYMPHOCYTE [3]: 13431.33 CELLS/uL
- ABSOLUTE MONOCYTE [3]: 0 CELLS/uL
- ABSOLUTE SEGMENTED NEUTROPHIL [3]: 1238.33 CELLS/uL
- BASOPHIL [3]: 0%
- EOSINOPHIL [3]: 2%
- ERYTHROCYTE COUNT [3]: 5.69 x10E6/uL
- HEMATOCRIT [3]: 35.67%
- HEMOGLOBIN [3]: 13.3 G/DL
- LEUKOCYTE COUNT [3]: 14.97 x10E3/uL
- LYMPHOCYTE [3]: 89.67%
- MEAN CORPUSCULAR HEMOGLOBIN [3]: 23.37 pg
- MEAN CORPUSCULAR HEMOGLOBIN CONCENTRATION [3]: 37.3 G/DL
- MEAN CORPUSCULAR VOLUME [3]: 62.7 fL
- MONOCYTE [3]: 0%
- NEUTROPHIL [3]: 8.33%
- NUCLEATED RED BLOOD CELLS [3]: 0 /100WBC
- PLATELET COUNT [3]: 1188.33 x10E3/uL
- ALANINE AMINOTRANSFERASE [3]: 35.33 u/L
- ALBUMIN [3]: 4.5 G/DL
- ALKALINE PHOSPHATASE [3]: 363.33 u/L
- ASPARTATE AMINOTRANSFERASE [3]: 79 u/L
- BLOOD UREA NITROGEN [3]: 17.33 mg/dL
- CARBON DIOXIDE [3]: 26.33 mmol/L
- CHLORIDE [3]: 100 MEQ/L
- CHOLESTEROL [3]: 67.33 mg/dL
- CREATINE PHOSPHOKINASE [3]: 213 u/L
- CREATININE [3]: 0.25 mg/dL
- GLUCOSE [3]: 158 mg/dL
- LACTATE DEHYDROGENASE [3]: 122 u/L
- LIPASE [3]: 8.33 u/L
- PHOSPHORUS [3]: 12.37 mg/dL
- POTASSIUM [3]: 6.67 MEQ/L
- SODIUM [3]: 142.2 MEQ/L
- TOTAL BILIRUBIN [3]: 0.13 mg/dL
- TOTAL PROTEIN [3]: 6.23 G/DL
- URIC ACID [3]: 1.73 mg/dL
